Laboratory results: patent US20060183794A1, “Drug composition containing nf-kb inhibitor” (priority 2002, published 2006)

How the values were obtained:
NF-κB [1] = target: T1, NF-κB (Homo sapiens, UniProt P19838+Q04206); test: Reporter gene (luciferase) assay of NF-κB transcriptional activity in ATL cell lines; assay type: cell-based; parameters: endogenous in cells; settings: MT-1 and TL-Om1; 5 μg/ml DHM2EQ; remaining activity vs untreated
Description: To examine the transcriptional activity of NF-κB, by using a luciferase construct (6 kB-Luc plasmid), containing six tandem copies of the NF-κB binding sequence, driven with an artificial promoter as a reporter, this plasmid DNA was transiently introduced into the ATL cell lines (MT-1 and TL-Om1) as well as into the control cell line (K562) (transfected on a scale of 2×10^5 cells/transfection using DMRIE-C (Invitrogen)). After 12 hours, treatment with 5 μg/ml DHM2EQ was started. Cells were recovered after 48 hours and the transcriptional activity of NF-κB was evaluated as the enzyme activity of the luciferase. The cell lines not treated with DHM2EQ were also evaluated in the same manner. All experiments were performed three times to obtain average values as well as standard deviations.

[2] = Acute toxicity test in ICR mice; assay type: in vivo; settings: mouse, in vivo, intraperitoneal; ICR mice, abdominal cavity, 24 hours; read-out: acute toxicity LD 50
Description: (§1) An acute toxicity test of DHMEQ was performed as follows: DHMEQ was dissolved in one drop of 10% DMSO saline+Tween, administered to the abdominal cavity of ICR mice, and the mortality/survival and status of the mice after 24 hours were investigated.

ICR mice = test: Acute toxicity test in ICR mice; assay type: in vivo; settings: ICR mice i.p.
Description: as §1

[3] = system: human breast cancer cell line MCF-7; test: In vitro proliferation of MCF-7 (trypan blue cell count); assay type: cell-based
Description: The human breast cancer cell line MCF-7 (NF-κB non-constitutively activated tumor) was incubated in 24, 48, and 72 hours in the presence of 10 and 50 μg/ml DHMEQ, and the proliferation-suppressive effect was examined.
MCF-7 was plated in 6 well plates at 1×10^5/well. The next day, the culture media were changed into those (5 ml) containing DHMEQ at 10 and 50 μg/ml and into the control medium (5 ml) containing only DMSO, which is used for dissolution of DHMEQ, in equal amount to those containing each concentration of DHMEQ. The assay was performed in three wells per each group. Immediately after the change, cells were incubated for 24, 48, and 72 hours. Subsequently, the cells were scraped with trypsin+EDTA. The number of cells was counted with trypan blue and averages as well as standard deviations were calculated. Data for each group were obtained and plotted in comparison with the control cells treated with DMSO only.

HUVECs = test: Toxicity to and proliferation of HUVECs; assay type: cell-based, human; settings: DHMEQ 3 μg/ml
[4] = system: ATL cell line MT-2 in SCID mice; test: Survival of SCID mice intraperitoneally inoculated with ATL cell line MT-2; assay type: in vivo; settings: for mice survived: p<0.05
Description: First, five-week-old male SCID mice (CB17-scid/scid; SLC Japan, Inc (Shizuoka, Japan)) were treated for 3 to 5 days with 1 mg of IL-2 receptor antibody (TM-β1; J. Immunol. 147: 2222-2228, 1991), and intraperitoneally inoculated with the ATL cell line MT-2 (3 to 4×10^7 cells). Subsequently, the mice were intraperitoneally given 4 mg/kg bw or 12 mg/kg bw DHMEQ dissolved in 5% carboxymethyl cellulose (CMC; Sigma) solution three times a week for one month, and their survival probability and status were observed. […] The survival curve was calculated by the Kaplan-Mayer method, and the statistically significant difference was determined by the Cox-Mantel test.

NF-κB [5] = target: T1, NF-κB; test: Gel shift assay of NF-κB/DNA binding in TNF-α-treated MCF-7 cells; assay type: cell-based; parameters: endogenous in cells; host or cells: MCF-7 cells treated with TNF-α; settings: 30 min
Description: MCF-7 cells (endowed by Professor Adrian L. Harriswere, Oxford University) were plated in portions of 4 ml at 1×10^5 cells/ml in […] (2 dishes per condition). On the next day, the culture medium in the 60 mm dishes was adjusted to 2 ml, treated with DHMEQ prepared at 1, 3, and 10 μg/ml for 2 hours, and subsequently, with TNF-α at 20 ng/ml. The culture medium in 60 mm dishes was extracted with a sucker 30 min after TNF-α treatment, cells were washed twice with PBS− for external application, 1 ml of cold PBS− was added, the cells were scraped with a rubber policeman (twice), and transferred to a 15 ml centrifuge tube. Cells were collected from two 60 mm dishes into a 15 ml centrifuge tube, centrifuged at 1,000 rpm for 5 min, and the supernatant was removed. To this, 700 μl of cold PBS− was added. […] The following operations were performed in ice. […] Next, collected nuclei were suspended in 40 μl buffer C (20 mM HEPES-KOH: pH7.9 […] 25% glycerol, 420 mM NaCl, 1.5 mM MgCl2, 0.2 mM EDTA, 0.5 mM DTT, 0.2 mM PMSF) and allowed to stand for 20 min. […]
Next, a Nick column was installed in the stand and a waste-liquid bottle was placed under the column. […] The column, fraction 1, and fraction 2 were measured individually with a Geiger counter and the readings confirmed fraction 2>the column>fraction 1. […]

T1 sequence (Q04206 whole entry): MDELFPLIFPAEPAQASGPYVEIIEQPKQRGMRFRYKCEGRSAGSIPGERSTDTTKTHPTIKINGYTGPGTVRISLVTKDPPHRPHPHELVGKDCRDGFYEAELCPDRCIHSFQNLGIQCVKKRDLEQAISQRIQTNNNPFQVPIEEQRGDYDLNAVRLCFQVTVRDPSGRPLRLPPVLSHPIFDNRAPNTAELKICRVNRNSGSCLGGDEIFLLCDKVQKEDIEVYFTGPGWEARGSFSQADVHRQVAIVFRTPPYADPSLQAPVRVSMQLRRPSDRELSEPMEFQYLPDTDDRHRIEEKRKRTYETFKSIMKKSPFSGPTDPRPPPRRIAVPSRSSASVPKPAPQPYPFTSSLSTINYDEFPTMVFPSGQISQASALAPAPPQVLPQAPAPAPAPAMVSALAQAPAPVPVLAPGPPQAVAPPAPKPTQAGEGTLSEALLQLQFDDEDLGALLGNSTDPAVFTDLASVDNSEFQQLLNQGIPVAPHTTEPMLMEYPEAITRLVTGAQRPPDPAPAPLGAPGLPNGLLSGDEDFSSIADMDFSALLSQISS
T1 sequence (P19838 1-433 limits assumed): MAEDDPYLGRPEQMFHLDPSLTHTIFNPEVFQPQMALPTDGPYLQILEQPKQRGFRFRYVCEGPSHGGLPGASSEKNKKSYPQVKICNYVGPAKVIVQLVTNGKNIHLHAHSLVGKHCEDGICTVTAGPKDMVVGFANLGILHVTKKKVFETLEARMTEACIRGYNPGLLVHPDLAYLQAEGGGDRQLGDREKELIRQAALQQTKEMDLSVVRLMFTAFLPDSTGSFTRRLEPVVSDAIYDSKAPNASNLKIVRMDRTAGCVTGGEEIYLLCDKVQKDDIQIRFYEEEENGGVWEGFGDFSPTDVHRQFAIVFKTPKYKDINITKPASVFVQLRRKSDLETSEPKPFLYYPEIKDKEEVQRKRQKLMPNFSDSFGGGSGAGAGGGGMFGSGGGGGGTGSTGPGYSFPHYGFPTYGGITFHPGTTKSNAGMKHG

O=C(NC1=CC(=O)C2OC2C1O)c1ccccc1O (centres unmarked) [DHMEQ, 5,6-epoxy-4-hydroxy-3-salicyloylamino-2-cyclohexenone]
luciferase activity suppressed to (NF-κB transcriptional activity) (NF-κB [1]): about 50%
LD50 at 24 h [2]: 188 mg/kg
mortality/survival after 24 hours (ICR mice; 5 mg/mouse (about 250 mg/kg)): dead on the day of administration
mortality/survival after 24 hours (ICR mice; 0.156, 0.313, 0.625, 1.25, or 2.5 mg/mouse): survived
cells survived compared with the control ([3]; 10 μg/ml, 24 hours): 39%
cells survived compared with the control ([3]; 10 μg/ml, 48 hours): 25%
cells survived compared with the control ([3]; 10 μg/ml, 72 hours): 17%
cells survived compared with the control ([3]; 50 μ/ml, in and after 24 hours): no cells were observed to survive
toxicity to HUVECs and suppression of their proliferation (HUVECs): neither exhibited toxicity to HUVECs nor suppressed their proliferation
mice survived ([4]; 4 mg/kg i.p. three times a week for one month, about 200 days, control all 5 dead): 4 out of 6
mice survived ([4]; 12 mg/kg i.p. three times a week for one month, about 30 days, control 4 out of 5 dead): 5 out of 6
toxicity, anomalies in body weights etc. ([4]; SCID mice, up to three volumes of 4 mg/kg): toxicity was not noted
binding between NF-κB and DNA (NF-κB [5]; DHMEQ 10 μg/ml, TNF-α 20 ng/ml): completely inhibited
binding between NF-κB and DNA (NF-κB [5]; DHMEQ 1, 3, 10 μg/ml for 2 hours, then TNF-α 20 ng/ml): concentration-dependently inhibited
